Non-standard residues stand in square brackets, D forms with d. Residues, ends and D or L forms follow the SMILES beside them. *: point of attachment. Dolaproine = CO[C@@H]([C@@H]1CCCN1)[C@@H](C)C(=O)O; Dil = CC[C@H](C)[C@H](NC)[C@@H](CC(=O)O)OC; Doe = c1ccc(C[C@H](N*)c2nccs2)cc1; Aib = CC(C)(N)C(=O)O
Legend:
[1] = system: head and neck cancer model PDX-HNX-24715; assay: PDX tumor growth versus standard of care; format: in vivo, mouse; details: 5 mg/kg
Description: (§1) The effects of ADCs were evaluated on the in vivo growth of human tumor patient-derived xenografts (PDX) implanted into immunodeficient NOD/SCID mice. To establish initial PDX cell lines, primary human tumor resection samples were procured from clinical sites following Institutional Review Board for the Protection of Human Subjects approval and in accordance with HIPAA regulations. Tumor fragments were implanted subcutaneously in mice and animals were monitored for health status daily and for tumor growth by visual inspection twice per week. Once the tumors were palpable, measurements of tumor volume began in order to track tumor growth and estimate cell doubling time. Tumor volume was estimated using the equation V=(A*B^2)/2 where A is the long axis and B is the short axis. When tumors reached a volume of 500 mm^3 to 1,500 mm^3, they were harvested for study and for re-transplant in naïve mice as a PDX line. Tumors were mechanically dissociated into fragments for cryopreservation or additional passage in mice.
(§2) For efficacy studies, PDX tumors were aseptically harvested from passaging mice and minced into fragments approximately 2 mm in diameter. The PDX tumor fragments were transplanted into the right flank of naïve 7-10-week old NOD-SCID mice.
(§3) Tumor growth was initially followed by palpability with measurements beginning once tumor volumes reached about 30 mm^3. Studies were randomized based on tumor size once a cohort of tumor-bearing mice reached an average of 200 mm^3. Animals were then dosed by intravenous injection of test ADCs once every four days (day 1, 5, 9, and 13) for four total doses (q4d×4). For each tumor measurement taken at regular intervals the tumor volume was calculated and an average tumor size +/− the standard error of the mean (SEM) was derived per cohort of surviving animals to determine tumor growth rates. In some studies, a “waterfall plot” was derived by calculating the maximum observed percent difference in tumor volume from the starting volume post the final dose of ADC. […]

SCC-25 cells = assay: In vitro cytotoxicity (ATPlite viability, four days); format: cell-based; details: Homo sapiens; SCC-25, head and neck cancer
Description: (§4) Cells were incubated in a 6-fold 9-point dilution series of respective ADCs ranging in concentration from 600 nM to 0.357225 pM. […] The mean of luminescence counts of triplicate samples were normalized to a medium only control (growth medium no ADC) to calculate percent viability.

H2009 cells = assay: as above; format: cell-based; details: Homo sapiens, NCI-H2009; H2009, lung adenocarcinoma
Description: as §4

H1299 cells = assay: as above; format: cell-based; details: Homo sapiens, NCI-H1299; H1299, NSCLC
Description: as §4

[2] = system: primary human aortic smooth muscle cells (HuAoSMC); assay: as above; format: cell-based
Description: as §4

PE/CA-PJ-49 cells = assay: as above; format: cell-based; details: Homo sapiens; PE/CA-PJ-49, oral squamous cell carcinoma
Description: as §4

PC3 cells = assay: as above; format: cell-based; details: Homo sapiens, PC-3; PC3, prostate cancer
Description: as §4

[3] = system: NSCLC model PDX-NSX-15137; assay: PDX tumor growth versus standard of care; format: in vivo, mouse; details: 22.5 mg/kg
Description: as §1, §2, §3

N.N.[Cl][Pt][Cl] [cisplatin, reference compound]
tumor size at day 25 [1]: more than doubled in size

CC[C@H](C)[C@@H]([C@@H](CC(=O)N1CCC[C@H]1[C@H](OC)[C@@H](C)C(=O)N[C@@H](Cc1ccccc1)c1nccs1)OC)N(C)C(=O)[C@@H](NC(=O)C(C)(C)N)C(C)C [Aur0101, 2-methylalanyl-N-[(3R,4S,5S)-3-methoxy-1-{(2S)-2-[(1R,2R)-1-methoxy-2-methyl-3-oxo-3-{[(1S)-2-phenyl-1-(1,3-thiazol-2-yl)ethyl]amino}propyl]pyrrolidin-1-yl}-5-methyl-1-oxoheptan-4-yl]-N-methyl-L-valinamide] (H-[Aib]V[Dil][Dolaproine]-Doe)
IC50 (SCC-25 cells): 0.047 nM
IC50 (H2009 cells): 0.116 nM
IC50 (H1299 cells): 0.202 nM
IC50 [2]: 0.176 nM
IC50 (PE/CA-PJ-49 cells): 0.0373 nM
IC50 (PC3 cells): 0.0636 nM

CC(=O)O[C@H]1C(=O)[C@@]2(C)[C@H]([C@H](OC(=O)c3ccccc3)[C@]3(O)C[C@H](OC(=O)[C@H](O)[C@@H](NC(=O)c4ccccc4)c4ccccc4)C(C)=C1C3(C)C)[C@]1(OC(C)=O)CO[C@@H]1C[C@@H]2O [Paclitaxel, reference compound]
average tumor size at day 35 [3]: doubled
day by which all mice had been sacrificed due to excessive tumor growth [3]: ≤ 42 days

Source: patent US12371507B2, “CDCP1 antibodies and antibody drug conjugates” (Beth Israel Deaconess Medical Center, priority 2018, dated 2025)
